Results taken from patent US8586600B2, “Heterocyclic compounds and uses thereof” (Celgene Avilomics Research, Inc., priority 2007, dated 2013).
Like-named read-outs stand apart in the source and are kept apart here. Blank lines part the entries; values can stand above or below the molecule they belong to.

How the values were obtained:
[1] = target: T1, c-KIT (V654A) (Homo sapiens (Human), UniProt P10721, V654A); test: c-Kit (V654A) Omnia assay with pre-activated enzyme (Method D); assay type: biochemical; details: [ATP]=100 μM, read-out: Mutant c-KIT (V654A) IC50
T1 sequence (P10721 26-976 V654A): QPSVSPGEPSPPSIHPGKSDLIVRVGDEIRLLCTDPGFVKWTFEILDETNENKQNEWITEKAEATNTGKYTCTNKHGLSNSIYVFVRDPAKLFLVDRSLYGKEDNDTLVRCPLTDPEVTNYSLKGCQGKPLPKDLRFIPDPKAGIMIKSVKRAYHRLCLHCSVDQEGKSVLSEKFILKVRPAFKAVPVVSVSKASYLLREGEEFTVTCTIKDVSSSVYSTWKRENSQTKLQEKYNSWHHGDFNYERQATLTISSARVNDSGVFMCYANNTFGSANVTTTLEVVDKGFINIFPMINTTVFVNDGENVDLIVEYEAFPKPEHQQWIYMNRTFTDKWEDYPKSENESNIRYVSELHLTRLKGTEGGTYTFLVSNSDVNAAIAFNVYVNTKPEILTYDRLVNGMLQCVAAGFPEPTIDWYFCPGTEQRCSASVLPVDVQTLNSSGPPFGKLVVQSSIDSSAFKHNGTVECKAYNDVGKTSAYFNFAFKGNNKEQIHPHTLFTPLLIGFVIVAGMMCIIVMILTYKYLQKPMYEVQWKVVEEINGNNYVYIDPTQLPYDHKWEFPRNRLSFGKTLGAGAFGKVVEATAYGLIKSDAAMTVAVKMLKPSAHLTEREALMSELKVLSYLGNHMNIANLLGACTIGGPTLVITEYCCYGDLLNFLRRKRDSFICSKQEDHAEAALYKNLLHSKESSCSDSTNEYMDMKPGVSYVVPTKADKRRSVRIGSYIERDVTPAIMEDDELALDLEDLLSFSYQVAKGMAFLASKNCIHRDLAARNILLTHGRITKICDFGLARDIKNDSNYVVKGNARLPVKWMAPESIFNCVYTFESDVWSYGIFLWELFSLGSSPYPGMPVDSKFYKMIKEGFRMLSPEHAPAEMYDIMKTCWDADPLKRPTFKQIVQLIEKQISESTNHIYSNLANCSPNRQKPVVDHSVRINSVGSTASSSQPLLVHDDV
Method: 10× enzyme/ATP stocks were pre-incubated for 30 min at room temperature to pre-activate each enzyme prior to compound exposure. […] Kinase reactions were started with the addition of 45 μL of the Y9 or Y12-Sox peptide substrate and monitored every 30-90 seconds for 60 minutes at λex360/λem485 in a Synergy^4 plate reader from BioTek (Winooski, Vt.).

[2] = target: T1, c-KIT (V654A); test: c-Kit (V654A) Omnia assay for potency assessment (Method E); assay type: biochemical; details: [ATP]=220 μM, read-out: Mutant c-KIT (V654A) IC50 Apparent
Method: (§1) Kinase reactions were started with the addition of 45 μL of the Y9 or Y12-Sox peptide substrate and monitored every 30-90 seconds for 60 minutes at λex360/λem485 in a Synergy^4 plate reader from BioTek (Winooski, Vt.).

[3] = target: T2, c-KIT kinase (Homo sapiens (Human), UniProt P10721); test: cKit inhibition assay Method C (electrophoretic mobility shift); assay type: biochemical; details: read-out: c-KIT % Inhibition
T2 sequence (P10721 26-976): as the sequence (P10721 26-976 V654A) above, with A629V counted along it
Method: The reaction was started by adding the ATP and incubating for 1 hour at room temperature. […] Phosphorylated and unphosphorylated substrate was separated by charge using electrophoretic mobility shift. Product formed was compared to control wells to determine inhibition or enhancement of enzyme activity.

[4] = target: T2, c-KIT kinase; test: c-KIT mass spectral analysis of tryptic digest (MALDI-TOF); assay type: binding; details: 3 hours incubation at 10× excess of compound
Method: Iodoacetamide was used as the alkylating agent after compound incubation. […] For tryptic digests a 5 μl aliquot (14 pmols) was diluted with 10 ul of 0.1% TFA prior to micro C18 Zip Tipping directly onto the MALDI target using alpha cyano-4-hydroxy cinnamic acid as the matrix (5 mg/ml in 0.1% TFA:acetonitrile 50:50).
The tryptic digest was analyzed by mass spectrometer (MALDI-TOF).

[5] = target: c-KIT (T670I) (Homo sapiens (Human), UniProt P10721, T670I); test: c-Kit (T670I) Omnia assay for potency assessment (Method E); assay type: biochemical; details: [ATP]=220 μM, read-out: Mutant c-KIT (T670I) IC50 Apparent
Sequence of c-KIT (T670I) (P10721 26-976 T670I): as the sequence (P10721 26-976 V654A) above, with A629V, T645I counted along it
Method: as §1

[6] = target: PDGFR-α (Homo sapiens (Human), UniProt P16234); test: PDGFR inhibition assay Method B (Z'-LYTE biochemical assay); details: compound at 1 μM
Sequence of PDGFR-α (P16234 24-1089): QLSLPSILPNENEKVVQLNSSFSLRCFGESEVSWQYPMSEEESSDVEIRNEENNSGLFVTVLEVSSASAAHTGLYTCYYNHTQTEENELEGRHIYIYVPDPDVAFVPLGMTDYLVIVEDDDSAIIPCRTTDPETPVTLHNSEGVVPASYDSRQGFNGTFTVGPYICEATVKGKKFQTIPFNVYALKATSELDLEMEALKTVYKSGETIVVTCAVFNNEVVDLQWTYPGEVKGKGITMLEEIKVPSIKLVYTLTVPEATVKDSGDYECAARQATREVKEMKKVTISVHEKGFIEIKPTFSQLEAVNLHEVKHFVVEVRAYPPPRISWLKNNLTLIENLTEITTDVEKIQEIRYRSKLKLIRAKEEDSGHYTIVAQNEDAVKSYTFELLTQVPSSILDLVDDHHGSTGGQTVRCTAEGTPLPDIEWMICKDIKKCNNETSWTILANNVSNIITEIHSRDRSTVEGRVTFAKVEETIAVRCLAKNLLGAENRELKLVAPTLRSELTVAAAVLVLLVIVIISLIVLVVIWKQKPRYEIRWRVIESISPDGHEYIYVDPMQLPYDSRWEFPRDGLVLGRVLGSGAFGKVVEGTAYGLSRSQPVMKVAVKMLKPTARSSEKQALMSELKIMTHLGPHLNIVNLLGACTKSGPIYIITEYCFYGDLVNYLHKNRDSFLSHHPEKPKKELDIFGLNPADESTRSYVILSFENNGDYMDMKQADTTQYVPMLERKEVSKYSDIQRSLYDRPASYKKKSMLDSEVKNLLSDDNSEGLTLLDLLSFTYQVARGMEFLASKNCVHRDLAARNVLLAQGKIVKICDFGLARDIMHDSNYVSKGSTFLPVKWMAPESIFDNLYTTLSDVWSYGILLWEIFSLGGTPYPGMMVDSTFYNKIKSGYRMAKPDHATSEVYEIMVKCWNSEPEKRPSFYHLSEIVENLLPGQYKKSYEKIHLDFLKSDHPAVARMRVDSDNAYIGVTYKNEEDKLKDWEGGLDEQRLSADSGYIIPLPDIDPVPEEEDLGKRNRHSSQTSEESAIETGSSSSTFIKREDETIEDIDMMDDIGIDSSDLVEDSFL
Text: The Z'-LYTE™ biochemical assay employs a fluorescence-based, coupled-enzyme format and is based on the differential sensitivity of phosphorylated and non-phosphorylated peptides to proteolytic cleavage.

Compound: C=CC(=O)NCc1ccc(C(=O)Nc2ccc(C)c(Nc3nccc(-c4cccnc4)n3)c2)cc1 [II-6, 4-(Acryloylaminomethyl)-N-[4-methyl-3-(4-pyridin-3-ylpyrimidin-2-ylamino)phenyl]benzamide]
- inhibition at 1 µM ([3]; compound at 1 μM, 300 μM ATP): 91%

Compound: Cc1ccc(C(=O)Nc2ccc(NC(=O)CCl)c(C(F)(F)F)c2)cc1Nc1nccc(-c2cccnc2)n1 [III-14]
- covalent modification of c-KIT (mass spectral analysis) [4]: covalently bound to c-KIT protein at two target cystein residues: Cys808 (minor) and Cys788 (major)

Compound: Cc1ccc(NC(=O)c2ccc(NC(=O)/C=C/CN(C)C)cc2)cc1Nc1nccc(-c2cccnc2)n1 [II-5]
- inhibition at 1 µM ([3]; compound at 1 μM, 300 μM ATP): 66%

Compound: Cc1ccc(NC(=O)c2ccc(CN3C(=O)C=CC3=O)cc2)cc1Nc1nccc(-c2cccnc2)n1 [II-8, 4-(2,5-Dioxo-2,5-dihydropyrrol-1-ylmethyl)-N-[4-methyl-3-(4-pyridin-3-yl-pyrimidin-2-ylamino)-phenyl]benzamide]
- inhibition at 1 µM ([3]; compound at 1 μM, 300 μM ATP): 78%

Compound: Cc1ccc(NC(=O)c2ccc(NS(=O)(=O)c3cnccc3Cl)cc2)cc1Nc1nccc(-c2cccnc2)n1 [II-40]
- IC50 [1]: 10000 nM

Compound: C=CC(=O)Nc1ccc(C(=O)Nc2ccc(C)c(Nc3nccc(-c4cccnc4)n3)c2)cc1C(F)(F)F [II-2]
- IC50 [2]: 83 nM

Compound: C/C=C/C(=O)Nc1ccc(C(=O)Nc2ccc(C)c(Nc3nccc(-c4cccnc4)n3)c2)cc1 [II-4]
- inhibition at 1 µM [6]: 28%

Other lines, results leading:

- IC50 [1]: 10000 nM
Compound: Cc1ccc(NC(=O)c2ccc(NC(=O)C(C)Cl)cc2)cc1Nc1nccc(-c2cccnc2)n1 (centres unmarked) [II-54]

- IC50 [1]: 937 nM
- IC50 [2]: 260 nM
Compound: Cc1ccc(NC(=O)c2ccc(NC(=O)CCl)cc2)cc1Nc1nccc(-c2cccnc2)n1 [II-53]

- IC50 [1]: 9150 nM
Compound: Cc1ccc(NC(=O)c2ccc(NC(=O)/C=C/CN(C)C)c(C(F)(F)F)c2)cc1Nc1nccc(-c2cccnc2)n1 [II-55]

- IC50 [2]: 173 nM
Compound: Cc1ccc(NC(=O)c2ccc(NS(=O)(=O)c3ccc(Cl)nc3)cc2)cc1Nc1nccc(-c2cccnc2)n1 [II-41]

- IC50 [1]: 3990 nM
- IC50 [2]: 216 nM
- IC50 [5]: 1570 nM
Compound: Cc1ccc(C(=O)Nc2ccc(NC(=O)/C=C/CN(C)C)c(C(F)(F)F)c2)cc1Nc1nccc(-c2cccnc2)n1 [III-6]

- inhibition at 1 µM ([3]; compound at 1 μM, 300 μM ATP): 94%
Compound: Cc1ccc(NC(=O)c2ccc(NC(=O)COC(=O)c3c(Cl)cccc3Cl)cc2)cc1Nc1nccc(-c2cccnc2)n1 [II-26]

- inhibition at 1 µM [3]: 95%
Compound: C=CC(=O)Nc1ccc2cc(C(=O)Nc3ccc(C)c(Nc4nccc(-c5cccnc5)n4)c3)ccc2c1 [II-44, 6-Acryloylaminonaphthalene-2-carboxylic acid[4-methyl-3-(4-pyridin-3-ylpyrimidin-2-ylamino)phenyl]amide]
